In PubChem BioAssay AID248 (DTP/NCI, 2004):
Where “and” joins values, the source holds several entries; their conditions need not be identical. Equal entries are not always repeated. Inconclusive results and toxic doses are left out.

Tested on: L1210 leukemia ip in BDF1 mice, survival T/C
Test: NCI In Vivo Anticancer Drug Screen. Data for tumor model L1210 Leukemia (intraperitoneal) in B6D2F1 (BDF1) mice
Conditions: endpoint: mean survival time, higher = longer survival
Summary of the method: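 Read-out is survival time, reported as the treated-group measurement over the vehicle-control measurement.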

[1] = dose: 50.0 mg/kg/injection, schedule: Q01DX009 (ip), vehicle: carboxymethylcellulose (CMC)
[2] = dose: 50.0 mg/kg/injection, schedule: Q04DX002 (ip), vehicle: carboxymethylcellulose (CMC)
[3] = dose: 50.0 mg/kg/injection, schedule: Q04DX003 (ip), vehicle: carboxymethylcellulose (CMC)
[4] = dose: 100.0 mg/kg/injection, schedule: Q04DX003 (ip), vehicle: carboxymethylcellulose (CMC)
[5] = dose: 100.0 mg/kg/injection, schedule: Q04DX002 (ip), vehicle: saline with Tween-80
[6] = dose: 200.0 mg/kg/injection, schedule: Q04DX002 (ip), vehicle: saline with Tween-80
[7] = dose: 100.0 mg/kg/injection, schedule: Q04DX003 (ip), vehicle: saline
[8] = dose: 200.0 mg/kg/injection, schedule: Q04DX003 (ip), vehicle: saline
[9] = dose: 400.0 mg/kg/injection, schedule: Q04DX003 (ip), vehicle: saline
[10] = dose: 100.0 mg/kg/injection, schedule: Q01DX009 (ip), vehicle: saline
[11] = dose: 200.0 mg/kg/injection, schedule: Q01DX009 (ip), vehicle: saline

## CN(C(=O)c1ccncc1)c1ccccc1
[1]
  T/C: 93 % of control and 98 % of control
[2]
  T/C: 95 % of control and 100 % of control
[3]
  T/C: 95 % of control
dose: 100.0 mg/kg/injection, schedule: Q01DX009 (ip), vehicle: carboxymethylcellulose (CMC)
  T/C: 98 % of control and 90 % of control
dose: 100.0 mg/kg/injection, schedule: Q04DX002 (ip), vehicle: carboxymethylcellulose (CMC)
  T/C: 100 % of control (2×) and 106 % of control
[4]
  T/C: 97 % of control
dose: 200.0 mg/kg/injection, schedule: Q01DX009 (ip), vehicle: carboxymethylcellulose (CMC)
  T/C: 90 % of control and 91 % of control
dose: 200.0 mg/kg/injection, schedule: Q04DX002 (ip), vehicle: carboxymethylcellulose (CMC)
  T/C: 97 % of control (2×) and 98 % of control
dose: 200.0 mg/kg/injection, schedule: Q04DX003 (ip), vehicle: carboxymethylcellulose (CMC)
  T/C: 98 % of control
dose: 400.0 mg/kg/injection, schedule: Q04DX002 (ip), vehicle: carboxymethylcellulose (CMC)
  T/C: 93 % of control

## O=C(NCCCCCCCCCCNC(=O)N1CC1)N1CC1
dose: 0.12 mg/kg/injection, schedule: Q01DX Z (ip), vehicle: carboxymethylcellulose (CMC)
  T/C: 94 % of control
dose: 0.25 mg/kg/injection, schedule: Q01DX Z (ip), vehicle: carboxymethylcellulose (CMC)
  T/C: 96 % of control
dose: 0.4 mg/kg/injection, schedule: Q01DX Z (ip), vehicle: carboxymethylcellulose (CMC)
  T/C: 115 % of control
dose: 0.5 mg/kg/injection, schedule: Q01DX Z (ip), vehicle: carboxymethylcellulose (CMC)
  T/C: 108 % of control
dose: 0.5 mg/kg/injection, schedule: Q01DX Z (ip), vehicle: saline
  T/C: 110 % of control
dose: 0.8 mg/kg/injection, schedule: Q01DX Z (ip), vehicle: carboxymethylcellulose (CMC)
  T/C: 123 % of control
dose: 0.8 mg/kg/injection, schedule: Q01DX Z (ip), vehicle: saline
  T/C: 113 % of control
dose: 1.0 mg/kg/injection, schedule: Q01DX Z (ip), vehicle: carboxymethylcellulose (CMC)
  T/C: 118 % of control
dose: 1.2 mg/kg/injection, schedule: Q01DX Z (ip), vehicle: saline
  T/C: 124 % of control
dose: 1.8 mg/kg/injection, schedule: Q01DX Z (ip), vehicle: carboxymethylcellulose (CMC)
  T/C: 155 % of control
dose: 1.8 mg/kg/injection, schedule: Q01DX Z (ip), vehicle: saline
  T/C: 118 % of control
dose: 2.6 mg/kg/injection, schedule: Q01DX Z (ip), vehicle: carboxymethylcellulose (CMC)
  T/C: 155 % of control and 160 % of control
dose: 2.7 mg/kg/injection, schedule: Q01DX Z (ip), vehicle: saline
  T/C: 168 % of control
dose: 4.0 mg/kg/injection, schedule: Q01DX Z (ip), vehicle: carboxymethylcellulose (CMC)
  T/C: 119 % of control
dose: 5.0 mg/kg/injection, schedule: Q01DX001 (ip), vehicle: saline
  T/C: 119 % of control
dose: 6.0 mg/kg/injection, schedule: Q01DX Z (ip), vehicle: carboxymethylcellulose (CMC)
  T/C: 96 % of control
dose: 6.0 mg/kg/injection, schedule: Q01DX Z (ip), vehicle: saline
  T/C: 112 % of control

## CC(O)COC(C)C (stereo not drawn)
dose: 100.0 mg/kg/injection, schedule: Q01DX001 (ip), vehicle: saline
  T/C: 98 % of control
dose: 200.0 mg/kg/injection, schedule: Q01DX001 (ip), vehicle: saline
  T/C: 89 % of control
dose: 400.0 mg/kg/injection, schedule: Q01DX001 (ip), vehicle: saline
  T/C: 96 % of control

## CN(C)C(=O)c1ccccc1Cl
dose: 100.0 mg/kg/injection, schedule: Q04DX003 (ip), vehicle: acetone
  T/C: 92 % of control
dose: 200.0 mg/kg/injection, schedule: Q04DX003 (ip), vehicle: acetone
  T/C: 94 % of control
dose: 400.0 mg/kg/injection, schedule: Q04DX003 (ip), vehicle: acetone
  T/C: 105 % of control

## Cc1cc(C)cc(OC(=O)Nc2ccccc2C)c1
[5]
  T/C: 106 % of control
[6]
  T/C: 91 % of control

## Cc1ccc(S(=O)(=O)N2Cc3ccc([N+](=O)[O-])cc3C2)cc1
dose: 100.0 mg/kg/injection, schedule: Q01DX001 (ip), vehicle: carboxymethylcellulose (CMC)
  T/C: 100 % of control
dose: 200.0 mg/kg/injection, schedule: Q01DX001 (ip), vehicle: carboxymethylcellulose (CMC)
  T/C: 102 % of control
dose: 400.0 mg/kg/injection, schedule: Q01DX001 (ip), vehicle: carboxymethylcellulose (CMC)
  T/C: 105 % of control

## OC(c1ccccc1)c1cccc(Br)c1 (stereo not drawn)
dose: 100.0 mg/kg/injection, schedule: Q01DX009 (ip), vehicle: acetone
  T/C: 104 % of control
[7]
  T/C: 96 % of control
dose: 200.0 mg/kg/injection, schedule: Q01DX009 (ip), vehicle: acetone
  T/C: 107 % of control
[8]
  T/C: 105 % of control
dose: 400.0 mg/kg/injection, schedule: Q01DX009 (ip), vehicle: acetone
  T/C: 100 % of control
[9]
  T/C: 89 % of control

## Cc1csc[n+]1C1CCCCC1
dose: 75.0 mg/kg/injection, schedule: Q01DX001 (ip), vehicle: saline
  T/C: 100 % of control

## CC(=O)O[C@H]1[C@H]2O[C@]23[C@@H]2CC[C@@H]4C[C@@H](O)CC[C@]4(C)[C@H]2CC[C@]3(C)[C@H]1c1ccc(=O)oc1
dose: 3.75 mg/kg/injection, schedule: Q01DX009 (ip), vehicle: Klucel (hydroxypropylcellulose) (HPC)
  T/C: 110 % of control
dose: 5.0 mg/kg/injection, schedule: Q01DX001 (ip), vehicle: other
  T/C: 103 % of control
dose: 7.5 mg/kg/injection, schedule: Q01DX009 (ip), vehicle: Klucel (hydroxypropylcellulose) (HPC)
  T/C: 98 % of control
dose: 10.0 mg/kg/injection, schedule: Q01DX001 (ip), vehicle: other
  T/C: 103 % of control
dose: 15.0 mg/kg/injection, schedule: Q04DX003 (ip), vehicle: Klucel (hydroxypropylcellulose) (HPC)
  T/C: 98 % of control
dose: 20.0 mg/kg/injection, schedule: Q01DX001 (ip), vehicle: other
  T/C: 97 % of control

## COC(=O)c1ccccc1N=NNc1ccccc1C(=O)OC
[5]
  T/C: 92 % of control
dose: 100.0 mg/kg/injection, schedule: Q04DX003 (ip), vehicle: Klucel (hydroxypropylcellulose) (HPC)
  T/C: 107 % of control
[6]
  T/C: 89 % of control
dose: 200.0 mg/kg/injection, schedule: Q04DX003 (ip), vehicle: Klucel (hydroxypropylcellulose) (HPC)
  T/C: 111 % of control
dose: 400.0 mg/kg/injection, schedule: Q04DX003 (ip), vehicle: Klucel (hydroxypropylcellulose) (HPC)
  T/C: 98 % of control

## CC1c2c(c3ccccc3n2C)CC[N+]1(C)C (stereo not drawn)
dose: 12.5 mg/kg/injection, schedule: Q01DX009 (ip), vehicle: carboxymethylcellulose (CMC)
  T/C: 109 % of control and 88 % of control
dose: 25.0 mg/kg/injection, schedule: Q01DX009 (ip), vehicle: carboxymethylcellulose (CMC)
  T/C: 115 % of control and 86 % of control
dose: 25.0 mg/kg/injection, schedule: Q04DX002 (ip), vehicle: carboxymethylcellulose (CMC)
  T/C: 102 % of control and 103 % of control
dose: 25.0 mg/kg/injection, schedule: Q04DX003 (ip), vehicle: carboxymethylcellulose (CMC)
  T/C: 102 % of control
[1]
  T/C: 94 % of control and 88 % of control
[2]
  T/C: 94 % of control and 99 % of control
[3]
  T/C: 105 % of control
[4]
  T/C: 116 % of control

## O=C1CC(c2ccccc2Cl)N(S(=O)(=O)c2ccccc2)N1 (stereo not drawn)
[10]
  T/C: 112 % of control
[7]
  T/C: 104 % of control
[11]
  T/C: 107 % of control
[8]
  T/C: 102 % of control
dose: 400.0 mg/kg/injection, schedule: Q01DX009 (ip), vehicle: saline
  T/C: 106 % of control
[9]
  T/C: 102 % of control

## CC(=O)OCC1CCCN1C(C)=O (stereo not drawn)
dose: 50.0 mg/kg/injection, schedule: Q01DX009 (ip), vehicle: saline
  T/C: 101 % of control
[10]
  T/C: 101 % of control
[11]
  T/C: 101 % of control

## CO[C@@H]([CH2][Hg][S]C#N)[C@@H]([CH2][Hg][S]C#N)OC
dose: 6.25 mg/kg/injection, schedule: Q01DX009 (ip), vehicle: saline sonified
  T/C: 94 % of control
dose: 12.5 mg/kg/injection, schedule: Q01DX009 (ip), vehicle: saline sonified
  T/C: 90 % of control
dose: 12.5 mg/kg/injection, schedule: Q04DX003 (ip), vehicle: saline sonified
  T/C: 97 % of control
dose: 25.0 mg/kg/injection, schedule: Q01DX009 (ip), vehicle: saline sonified
  T/C: 93 % of control
dose: 25.0 mg/kg/injection, schedule: Q04DX003 (ip), vehicle: saline sonified
  T/C: 88 % of control

## CCOc1cc(C=Nc2cccc(C(F)(F)F)c2)ccc1O
dose: 100.0 mg/kg/injection, schedule: Q01DX009 (ip), vehicle: other
  T/C: 100 % of control
dose: 100.0 mg/kg/injection, schedule: Q04DX003 (ip), vehicle: other
  T/C: 95 % of control
dose: 200.0 mg/kg/injection, schedule: Q01DX009 (ip), vehicle: other
  T/C: 99 % of control
dose: 200.0 mg/kg/injection, schedule: Q04DX003 (ip), vehicle: other
  T/C: 90 % of control
dose: 400.0 mg/kg/injection, schedule: Q04DX003 (ip), vehicle: other
  T/C: 92 % of control
